Consider 23 molecules from patent US8883850B2, “Naphthalene carboxamide M1 receptor positive allosteric modulators” (Merck Sharp & Dohme Corp., priority 2010, dated 2014).

Molecules are shown by their SMILES. pEC50: −log10 of the molar value.

The first assay addresses T1, acetylcholine muscarinic M1 receptor (Homo sapiens, UniProt P11229).
T1 construct: expressed in transfected cells; host or cells: CHOnfat (CHO cells; also called CHOK1/hM1)
T1 sequence (P11229 1-460): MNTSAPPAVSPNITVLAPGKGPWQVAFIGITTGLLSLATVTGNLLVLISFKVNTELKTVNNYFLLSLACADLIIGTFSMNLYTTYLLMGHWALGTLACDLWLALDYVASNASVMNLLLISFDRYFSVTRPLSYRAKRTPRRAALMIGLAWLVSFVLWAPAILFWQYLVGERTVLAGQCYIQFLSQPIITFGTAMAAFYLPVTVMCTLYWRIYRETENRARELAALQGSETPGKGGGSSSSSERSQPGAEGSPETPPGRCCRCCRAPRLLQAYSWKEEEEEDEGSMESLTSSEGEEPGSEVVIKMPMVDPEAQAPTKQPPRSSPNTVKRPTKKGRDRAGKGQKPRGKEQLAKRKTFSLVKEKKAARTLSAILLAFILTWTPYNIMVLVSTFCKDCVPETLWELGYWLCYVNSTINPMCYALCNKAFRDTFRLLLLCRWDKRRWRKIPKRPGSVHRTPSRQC
As to the kind of experiment: M1 FLIPR assay: intracellular calcium, potentiation of acetylcholine EC20. Type of assay: cell-based. The conditions noted are these: M1 activity in a FLIPR assay; Table 3, Examples 1-12; read-out: M1 Potential. How it is done:
The assay studies the effect of one or several concentrations of test compounds on basal or acetylcholine-stimulated Ca^2+ levels using FLIPR.
For each compounds of the invention that was evaluated, the compound is prepared and subjected to a pre-incubation period of four minutes. Thereafter, a single EC20 concentration of acetylcholine is added to each well (3 nM final). The intracellular Ca^2+ level of each sample is measured and compared to an acetylcholine control to determine any modulatory activity.
Cells: CHOnfat/hM1, hM2, hM3 or hM4 cells are plated 24 hours before the assay at a density of 18,000 cells/well (100 μL) in a 384 well plate. CHOnfat/hM1 and CHOnfat/hM3 Growth Medium: 90% DMEM (Hi Glucose); 10% HI FBS; 2 mM L-glutamine; 0.1 mM NEAA; Pen-Strep; and 1 mg/ml Geneticin, are added. For M2Gqi5CHOnfat and M4Gqi5CHOnfat cells, an additional 600 μg/ml hygromycin is added.
Dye Loading Buffer: Assay Buffer plus 1% Fetal Bovine Serum and Fluo-4AM/Pluronic Acid Mixture. […] 20% Pluronic acid solution stock, with a concentration of 0.04% in Buffer, 0.02% in Assay. 65 μL of 2 mM Fluo-4AM are mixed with 130 μL of 20% pluronic acid. The resulting solution and 650 μL FBS is added to the assay buffer for a total volume of 65 mL.
Positive Controls: 4-Br-A23187: 10 mM in DMSO, final concentration 10 μM. Acetylcholine: […], working stock at both 20 μM and 30 μM in assay buffer, final concentration of 10 μM. This is used to check the maximum stimulation of the CHOK1/hM1 cells. 20 μM (2×) acetylcholine is added in the preincubation part of the assay, and the 30 μM (3×) stock is added in the second part. (EC20)Acetylcholine: 10 mM in water, working stock of 9 nM (3×), and final concentration in assay is 3 nM. This is used after the preincubation with test compounds. Addition of the EC20 Acetylcholine to each well with a test compound will ascertain any modulator activity. 24 wells contain 3 nM Acetylcholine alone as a control.
Four 96-well plates are combined into a 384-well plate using Mosquito Nanoliter Pipetting System by transferring 1 μl of serial diluted compounds to each well, and 1 mM acetylcholine (100× stock concentration) were added as a control. Using Temo, 49 μl assay buffer is added to each well of the 384-well plate right before assay.
In a 96-well Whatman 2 ml Uniplate, 9 nM Acetylcholine (3×) is pipetted into wells corresponding to the screening compounds, and into control wells. The 30 μM acetylcholine control (3×) is added into control wells, and the 3× agonist plate is transferred into a 384 well plate.
Cells are washed three times with 100 μL of buffer, leaving 30 μL of buffer in each well. Using Multimek, 30 μL of Dye Loading Buffer is added into each well and incubated at 37° C., 5% CO2 for up to one hour.
After 60 minutes, the cells are washed three times with 100 μL of buffer, leaving 30 μL of buffer in each well. The cell plate, screening plate, and agonist addition plates are placed on the platform in the FLIPR and the door closed. A signal test to check background fluorescence and basal fluorescence signal is performed. Laser intensity is adjusted if necessary.
Four minutes of pre-incubation with the test compounds is provided to determine any agonist activity on the M1 receptor by comparison to the […] acetylcholine control. After pre-incubation, the EC20 value of acetylcholine (3 nM final) is added to determine any modulator activity.
With `COc1ccc(Cc2cc(C(=O)O)c(OC)c3ccccc23)cc1` [Example 1, 1-Methoxy-4-(4-methoxybenzyl)-2-naphthoic acid], the pEC50 was 5.48.
`COc1c(C(=O)O)cc(Cc2ccc(-n3cccn3)cc2)c2ccccc12` [Example 2, 1-Methoxy-4-[4-(1H-pyrazol-1-yl)benzyl]-2-naphthoic acid]: the pEC50 was 6.24.
Still for that read-out and setting: as for `COc1c(C(=O)N[C@H]2CCCC[C@@H]2O)cc(Cc2ccc(Cl)nc2)c2ccccc12` [Example 3, 4-[(6-Chloropyridin-3-yl)methyl]-N-[(1S,2S)-2-hydroxycyclohexyl]-1-methoxy-2-naphthamide], the figure is 6.59; as for `COc1c(C(=O)N[C@H]2CCCC[C@@H]2O)cc(Cc2ccc(C)nc2)c2ccccc12` [Example 4], 6.92; as for `COc1c(C(=O)N[C@H]2CCCC[C@@H]2O)cc(Cc2ccc(-c3cnn(C)c3)nc2)c2ccccc12` [Example 5, N-[(1S,2S)-2-Hydroxycyclohexyl]-1-methoxy-4-{[6-(1-methyl-1H-pyrazol-4-yl)pyridine-3-yl]methyl}-2-naphthamide], 7.77.
For `O=C(N[C@H]1CCCC[C@@H]1O)c1cc(Cc2ccc(-n3cccn3)nc2)c2ccccc2c1O` [Example 6, 1-Hydroxy-N-[(1S,2S)-2-hydroxycyclohexyl]-4-{[6-(1H-pyrazol-1-yl)pyridine-3-yl]methyl}-2-naphthamide], the pEC50 is 5.33.
On to `COc1c(C(=O)N[C@H]2CCCC[C@@H]2O)cc(Cc2ccc(-n3cccn3)nc2)c2ccccc12` [Example 7, N-[(1S,2S)-2-Hydroxycyclohexyl]-1-methoxy-4-{[6-(1H-pyrazol-1-yl)pyridine-3-yl]methyl}-2-naphthamide], for which the pEC50 is 7.09.
The same measure, in the same setting: as for `COc1c(C(=O)N[C@H]2CCCC[C@@H]2O)cc(CN2CCN(c3cnn(C)c3)CC2)c2ccccc12` [Example 8, N-[(1S,2S)-2-Hydroxycyclohexyl]-1-methoxy-4-{[4-(1-methyl-1H-pyrazol-4-yl)piperazin-1-yl]methyl}-2-naphthamide], the figure is 5.41; as for `CCc1ccc(Cc2cc(C(=O)N[C@H]3CCCC[C@@H]3O)c(OC)c3ccccc23)cn1` [Example 9, N-[(1S,2S)-2-Hydroxycyclohexyl]-1-methoxy-4-[(6-ethylpyridin-3-yl)methyl]-2-naphthamide], 6.72.
For `COc1c(C(=O)N[C@H]2CCOC[C@@H]2O)cc(Cc2ccc(Cl)nc2)c2ccccc12` [Example 10, 4-[(6-Chloropyridin-3-yl)methyl]-N-[(3R,4S)-3-hydroxytetrahydro-2H-pyran-4-yl]-1-methoxy-2-naphthamide], the pEC50 is 7.25.
Still for that read-out and setting: as for `COc1c(C(=O)N[C@H]2CCCC[C@@H]2O)cc(Cc2ccnc(SC)c2)c2ccccc12` [Example 11, N-[(1S,2S)-2-Hydroxycyclohexyl]-1-methoxy-4-{[2-(methylthio)pyridin-4-yl]methyl}-2-naphthamide], the figure is 6.55.
Same read-out and setting: as for `CCOc1c(C(=O)N[C@H]2CCCC[C@@H]2O)cc(Cc2ccc(Cl)nc2)c2ccccc12` [Example 12], the figure is 6.01.

The assay is the same for the next values; noted with them: inflection point value from FLIPR assay; CHOnfat/hM1 cells; 4 min pre-incubation, then acetylcholine EC20 (3 nM final); Table 1, Formula (III); read-out: M1 IP Value.
In the case of `COc1c(C(=O)O)cc(Cc2ccc(-c3ccccc3)cc2)c2ccccc12` [Compound 1-1], the pEC50 is 6.06.
Still for that read-out and setting: as for `COc1c(C(=O)O)cc(Cc2ccc(NC(C)=O)cc2)c2ccccc12` [Compound 1-2], the figure is 5.81.
In the case of `COc1c(C(=O)N[C@H]2CCCC[C@@H]2O)cc(Cc2ccc(-c3cccnc3)nc2)c2ccccc12` [Compound 1-3], the pEC50 was 7.62.
Same read-out and setting: as for `COc1ccc(Cc2cc(C(=O)N[C@H]3CCCC[C@@H]3O)c(OC)c3ccccc23)cn1` [Compound 1-7], the figure is 6.55; as for `COc1c(C(=O)N[C@H]2CCCC[C@@H]2O)cc(Cc2ccc(SC)nc2)c2ccccc12` [Compound 1-9], 6.77; as for `COc1c(C(=O)N[C@H]2CCCC[C@@H]2O)cc(Cc2ccnc(C)c2)c2ccccc12` [Compound 1-11], 6.65.
On to `COc1cc(Cc2cc(C(=O)N[C@H]3CCCC[C@@H]3O)c(OC)c3ccccc23)ccn1` [Compound 1-12], for which the pEC50 was 6.85.
Still for that read-out and setting: as for `COc1c(C(=O)N[C@H]2CCOC[C@@H]2O)cc(Cc2ccc(C)nc2)c2ccccc12` [Compound 1-13], the figure is 7.06; as for `COc1c(C(=O)N[C@H]2CCOC[C@@H]2O)cc(Cc2ccc(-c3ccnc(C)c3)nc2)c2ccccc12` [Compound 1-14], 8.17.
Consider `COc1c(C(=O)N[C@H]2CCOC[C@@H]2O)cc(Cc2ccc(-c3ccc(C)nc3)nc2)c2ccccc12` [Compound 1-15], for which the pEC50 was 7.66.

Still in this assay, the particulars now being: inflection point value from FLIPR assay; CHOnfat/hM1 cells; 4 min pre-incubation, then acetylcholine EC20 (3 nM final); Table 2, Formula (IV); read-out: M1 IP Value.
Regarding `C=CCOc1c(C(=O)N[C@H]2CCCC[C@@H]2O)cc(Cc2ccc(Cl)nc2)c2ccccc12` [Compound 2-2], the pEC50 is 5.94.
